Data: ChEMBL document CHEMBL1133806, “Synthesis and biological evaluation of novel bisindolylmaleimides that inhibit vascular endothelial cell proliferation” (Bioorg Med Chem Lett, 2001)

Key:
Type in all cases: functional, cell-based
[1] = Antiproliferative activity against burkit lymphoma cell line (ST-486 cells) using MTT assay; conditions: Homo sapiens
DLD-1 = test: Antiproliferative activity against human colon cancer cell line (DLD-1 cells) using MTT assay
HUVEC = test: Antiproliferative activity against human umbilical vein endothelial cells (HUVECs) using MTT assay
LoVo = test: Antiproliferative activity against human colon cancer cell line (LoVo cells) using MTT assay

Row | Compound | IC50 (DLD-1) [µM] | IC50 (LoVo) [µM] | IC50 [1] [µM] | IC50 (HUVEC) [µM]
1 | CN(C)CCN1C(=O)C(c2c[nH]c3ccccc23)=C(c2cn(CCOCCO)c3ccccc23)C1=O | 40 | 7 | 10 | 7
2 | O=C1NC(=O)C(c2cn(CCOCCO)c3ccccc23)=C1c1c[nH]c2ccccc12 | 6 | 20 | 2 | 2
3 | CN(C)CCOCCn1cc(C2=C(c3c[nH]c4ccccc34)C(=O)NC2=O)c2ccccc21 | > 100 | > 100 | 10 | 20
4 | CN(C)CCOCCn1cc(C2=C(c3c[nH]c4ccccc34)C(=O)N(CCN(C)C)C2=O)c2ccccc21 | > 100 | > 100 | 30 | 25
5 | CN[C@@H]1C[C@H]2O[C@@](C)([C@@H]1OC)n1c3ccccc3c3c4c(c5c6ccccc6n2c5c31)C(=O)NC4 [STAUROSPORINE] | 0.009 |  | 0.007 | 0.004
6 | Cc1ccc(C(=O)Nc2ccc(S(=O)(=O)O)c3cc(S(=O)(=O)O)cc(S(=O)(=O)O)c23)cc1NC(=O)c1cccc(NC(=O)Nc2cccc(C(=O)Nc3cc(C(=O)Nc4ccc(S(=O)(=O)O)c5cc(S(=O)(=O)O)cc(S(=O)(=O)O)c45)ccc3C)c2)c1 [SURAMIN] |  |  |  | 500

Now from value to compound, other results behind:

Row | IC50 (DLD-1) [µM] | IC50 (LoVo) [µM] | Compound | IC50 [1] [µM] | IC50 (HUVEC) [µM]
7 | > 100 | > 100 | CN(C)CCN1C(=O)C(c2c[nH]c3ccccc23)=C(c2c[nH]c3ccccc23)C1=O | > 100 | 30
8 | > 100 | > 100 | CNCCOCCn1cc(C2=C(c3c[nH]c4ccccc34)C(=O)N(CCN(C)C)C2=O)c2ccccc21 | 20 | 50
